Results on two compounds are retold here after publication PMC7111470 (European Journal of Medicinal Chemistry, 2011).

Test [1] deals with T1, BCoV 9-SOAE (haemagglutinin-esterase on whole virus) (Bovine coronavirus Mebus, UniProt P15776). In words: pNPA hydrolysis, A400. The format is biochemical. To be noted: read-out: BCoV / 3.
The target in test [2] is T1, BCoV 9-SOAE (haemagglutinin-esterase on whole virus). In words: pNPA hydrolysis, A400. It is filed as biochemical.

T1 sequence (P15776 17-424): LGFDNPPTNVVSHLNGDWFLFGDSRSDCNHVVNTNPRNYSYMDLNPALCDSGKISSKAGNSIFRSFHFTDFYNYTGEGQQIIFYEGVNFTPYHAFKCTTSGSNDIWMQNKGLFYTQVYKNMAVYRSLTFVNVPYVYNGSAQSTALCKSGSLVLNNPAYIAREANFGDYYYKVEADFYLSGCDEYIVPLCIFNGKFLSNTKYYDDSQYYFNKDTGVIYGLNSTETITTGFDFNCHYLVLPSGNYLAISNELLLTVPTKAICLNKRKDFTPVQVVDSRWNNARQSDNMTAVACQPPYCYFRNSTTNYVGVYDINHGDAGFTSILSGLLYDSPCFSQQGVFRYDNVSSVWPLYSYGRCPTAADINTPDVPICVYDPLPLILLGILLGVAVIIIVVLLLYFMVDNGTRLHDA

As for `C=CCO[C@]1(C(=O)O)C[C@H](O)[C@@H](NC(C)=O)[C@H]([C@H](O)[C@H](O)COC)O1` [compound 3, Ammonium (allyl 5-acetamido-9-O-methyl-3,5-dideoxy-d-glycero-α-d-galacto-2-nonulopyranosidonate)], in test [1], the inhibition at 2000 µM is < 0%.
As to `CC(=O)Oc1ccc([N+](=O)[O-])cc1` [p-nitrophenyl acetate], in test [2], the “pNPA hydrolysis, A400” value was “esterase activities of all viruses and recombinant proteins were determined with p-nitrophenyl acetate (pNPA)”.
